{"source": "patent US6534524B1", "about": "“Indazole compounds and pharmaceutical compositions for inhibiting protein kinases, and methods for their use” (Agouron Pharmaceuticals, Inc., priority 1999, dated 2003)", "system": "human umbilical vein endothelial cells (HUVEC)", "experiment": "HUVEC proliferation assay (VEGF-stimulated, MTT);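 as to % inhibition of the proliferation of HUVEC: relative to VEGF-stimulated control minus starvation-medium baseline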", "format": "cell-based", "settings": "crude reaction mixtures; for % inhibition: Library III, HUVEC proliferation, nominal concentration of 0.5 nM", "key": {"[1]": {"settings": "Library II, Y=S, 0.5 mM (column head; text: nominal 0.5 nM)"}, "[2]": {"settings": "Library II, Y=S, 2 mM (column head; text: nominal 2 nM)"}, "[3]": {"settings": "Library I, Y = CO, nominal concentration of 10 nM"}, "[4]": {"settings": "Library I, Y = NH, nominal concentration of 10 nM"}, "[5]": {"settings": "Library I, Y = O, nominal concentration of 10 nM"}}}
{"smiles": "O=C(NCCCN(CCO)CCO)c1ccccc1Sc1ccc2c(/C=C/c3ccccn3)n[nH]c2c1", "values": [{"measurement": "% inhibition of the proliferation of HUVEC", "setting": "[1]", "value": 4, "unit": "%"}, {"measurement": "% inhibition of the proliferation of HUVEC", "setting": "[2]", "value": 4, "unit": "%"}]}
{"smiles": "CC(NC(=O)c1ccccc1Sc1ccc2c(/C=C/c3ccccn3)n[nH]c2c1)c1ccc(F)cc1", "note": "(stereo not shown)", "values": [{"measurement": "% inhibition", "value": 2, "unit": "%"}]}
{"smiles": "O=C(Nc1ccccn1)c1ccccc1Sc1ccc2c(/C=C/c3ccccn3)n[nH]c2c1", "values": [{"measurement": "% inhibition", "value": "−31", "unit": "%"}]}
{"smiles": "CCCC(CCC)NC(=O)c1ccccc1Sc1ccc2c(/C=C/c3ccccn3)n[nH]c2c1", "values": [{"measurement": "% inhibition of the proliferation of HUVEC", "setting": "[1]", "value": 1, "unit": "%"}, {"measurement": "% inhibition of the proliferation of HUVEC", "setting": "[2]", "value": 52, "unit": "%"}]}
{"smiles": "O=C(Nc1ccc(C(F)(F)F)cn1)c1ccccc1Sc1ccc2c(/C=C/c3ccccn3)n[nH]c2c1", "values": [{"measurement": "% inhibition", "value": 20, "unit": "%"}]}
{"smiles": "CC(C)CC(C)NC(=O)c1ccccc1Sc1ccc2c(/C=C/c3ccccn3)n[nH]c2c1", "note": "(stereo not shown)", "values": [{"measurement": "% inhibition of the proliferation of HUVEC", "setting": "[1]", "value": 55, "unit": "%"}, {"measurement": "% inhibition of the proliferation of HUVEC", "setting": "[2]", "value": 50, "unit": "%"}]}
{"smiles": "O=C(Nc1ccc(CCO)cc1)c1ccccc1Sc1ccc2c(/C=C/c3ccccn3)n[nH]c2c1", "values": [{"measurement": "% inhibition", "value": 10, "unit": "%"}]}
{"smiles": "O=C(Nc1nc2ccccc2s1)c1ccccc1Sc1ccc2c(/C=C/c3ccccn3)n[nH]c2c1", "values": [{"measurement": "% inhibition", "value": "−15", "unit": "%"}]}
{"smiles": "Nc1cccc(F)c1CNC(=O)c1ccccc1Sc1ccc2c(/C=C/c3ccccn3)n[nH]c2c1", "values": [{"measurement": "% inhibition", "value": 11, "unit": "%"}]}
{"smiles": "COC(=O)c1ccc(NC(=O)c2ccccc2Sc2ccc3c(/C=C/c4ccccn4)n[nH]c3c2)cc1", "values": [{"measurement": "% inhibition", "value": "−1", "unit": "%"}]}
{"smiles": "O=C(NCc1cccc(F)c1)c1ccccc1Sc1ccc2c(/C=C/c3ccccn3)n[nH]c2c1", "note": "[drawing 797]", "values": [{"measurement": "% inhibition of the proliferation of HUVEC", "setting": "[1]", "value": 81, "unit": "%"}, {"measurement": "% inhibition of the proliferation of HUVEC", "setting": "[2]", "value": 95, "unit": "%"}]}
{"smiles": "O=C(Nc1ncnc2[nH]ncc12)c1ccccc1Sc1ccc2c(/C=C/c3ccccn3)n[nH]c2c1", "values": [{"measurement": "% inhibition", "value": 4, "unit": "%"}]}
{"smiles": "CCOC(=O)C1CCCN(C(=O)c2ccc3c(-c4nc5ccccc5[nH]4)n[nH]c3c2)C1", "note": "(stereo not shown)", "values": [{"measurement": "% inhibition of the proliferation of HUVEC", "setting": "[3]", "value": 64, "unit": "%"}, {"measurement": "% inhibition of the proliferation of HUVEC", "setting": "[4]", "value": "−8", "unit": "%"}, {"measurement": "% inhibition of the proliferation of HUVEC", "setting": "[5]", "value": 83, "unit": "%"}]}
{"smiles": "CN(CC#N)C(=O)c1ccc2c(-c3nc4ccccc4[nH]3)n[nH]c2c1", "values": [{"measurement": "% inhibition of the proliferation of HUVEC", "setting": "[3]", "value": 56, "unit": "%"}, {"measurement": "% inhibition of the proliferation of HUVEC", "setting": "[4]", "value": "−17", "unit": "%"}, {"measurement": "% inhibition of the proliferation of HUVEC", "setting": "[5]", "value": 17, "unit": "%"}]}
{"smiles": "COC(=O)c1ccc(NC(=O)c2ccccc2Sc2ccc3c(/C=C/c4ccccn4)n[nH]c3c2)c(C)c1", "values": [{"measurement": "% inhibition", "value": "−46", "unit": "%"}]}
{"smiles": "COc1ccc(NC(=O)c2ccc3c(-c4nc5ccccc5[nH]4)n[nH]c3c2)cn1", "values": [{"measurement": "% inhibition of the proliferation of HUVEC", "setting": "[3]", "value": 81, "unit": "%"}, {"measurement": "% inhibition of the proliferation of HUVEC", "setting": "[4]", "value": 11, "unit": "%"}, {"measurement": "% inhibition of the proliferation of HUVEC", "setting": "[5]", "value": 64, "unit": "%"}]}
{"smiles": "CC(C)C(CO)NC(=O)c1ccccc1Sc1ccc2c(/C=C/c3ccccn3)n[nH]c2c1", "note": "(stereo not shown)", "values": [{"measurement": "% inhibition of the proliferation of HUVEC", "setting": "[1]", "value": 21, "unit": "%"}, {"measurement": "% inhibition of the proliferation of HUVEC", "setting": "[2]", "value": "−5", "unit": "%"}]}
{"smiles": "CCC(O)CNC(=O)c1ccccc1Sc1ccc2c(/C=C/c3ccccn3)n[nH]c2c1", "note": "(stereo not shown)", "values": [{"measurement": "% inhibition of the proliferation of HUVEC", "setting": "[1]", "value": 13, "unit": "%"}, {"measurement": "% inhibition of the proliferation of HUVEC", "setting": "[2]", "value": 23, "unit": "%"}]}
{"smiles": "CCOc1ccccc1CNC(=O)c1ccccc1Sc1ccc2c(/C=C/c3ccccn3)n[nH]c2c1", "values": [{"measurement": "% inhibition", "value": "−9", "unit": "%"}]}
{"smiles": "Cc1c(O)ccc(NC(=O)c2ccccc2Sc2ccc3c(/C=C/c4ccccn4)n[nH]c3c2)c1C", "values": [{"measurement": "% inhibition", "value": 4, "unit": "%"}]}
{"smiles": "Nc1ccc(CCNC(=O)c2ccccc2Sc2ccc3c(/C=C/c4ccccn4)n[nH]c3c2)cc1", "values": [{"measurement": "% inhibition of the proliferation of HUVEC", "setting": "[1]", "value": 32, "unit": "%"}, {"measurement": "% inhibition of the proliferation of HUVEC", "setting": "[2]", "value": 31, "unit": "%"}]}
{"smiles": "CC(C)(CO)CNC(=O)c1ccccc1Sc1ccc2c(/C=C/c3ccccn3)n[nH]c2c1", "values": [{"measurement": "% inhibition of the proliferation of HUVEC", "setting": "[1]", "value": 8, "unit": "%"}, {"measurement": "% inhibition of the proliferation of HUVEC", "setting": "[2]", "value": 22, "unit": "%"}]}
{"smiles": "CCN(CC)c1ccc(NC(=O)c2ccccc2Sc2ccc3c(/C=C/c4ccccn4)n[nH]c3c2)cc1", "values": [{"measurement": "% inhibition", "value": "−9", "unit": "%"}]}
{"smiles": "Cc1nnc(NC(=O)c2ccccc2Sc2ccc3c(/C=C/c4ccccn4)n[nH]c3c2)s1", "values": [{"measurement": "% inhibition", "value": "−20", "unit": "%"}]}
{"smiles": "O=C(NCCC1OCCO1)c1ccccc1Sc1ccc2c(/C=C/c3ccccn3)n[nH]c2c1", "values": [{"measurement": "% inhibition of the proliferation of HUVEC", "setting": "[1]", "value": 38, "unit": "%"}, {"measurement": "% inhibition of the proliferation of HUVEC", "setting": "[2]", "value": 68, "unit": "%"}]}
{"smiles": "CC(=O)NCCNC(=O)c1ccc2c(-c3nc4ccccc4[nH]3)n[nH]c2c1", "values": [{"measurement": "% inhibition of the proliferation of HUVEC", "setting": "[3]", "value": 14, "unit": "%"}, {"measurement": "% inhibition of the proliferation of HUVEC", "setting": "[4]", "value": 12, "unit": "%"}, {"measurement": "% inhibition of the proliferation of HUVEC", "setting": "[5]", "value": 90, "unit": "%"}]}
{"smiles": "O=C(c1ccc2c(-c3nc4ccccc4[nH]3)n[nH]c2c1)N1CCOCC1", "values": [{"measurement": "% inhibition of the proliferation of HUVEC", "setting": "[3]", "value": 10, "unit": "%"}, {"measurement": "% inhibition of the proliferation of HUVEC", "setting": "[4]", "value": "−7", "unit": "%"}, {"measurement": "% inhibition of the proliferation of HUVEC", "setting": "[5]", "value": 59, "unit": "%"}]}
{"smiles": "O=C(NCc1ccc(F)cc1F)c1ccccc1Sc1ccc2c(/C=C/c3ccccn3)n[nH]c2c1", "values": [{"measurement": "% inhibition", "value": 11, "unit": "%"}]}
{"smiles": "Cc1cnc(CNC(=O)c2ccccc2Sc2ccc3c(/C=C/c4ccccn4)n[nH]c3c2)cn1", "values": [{"measurement": "% inhibition", "value": 6, "unit": "%"}]}
{"smiles": "CCSc1nnc(NC(=O)c2ccccc2Sc2ccc3c(/C=C/c4ccccn4)n[nH]c3c2)s1", "values": [{"measurement": "% inhibition", "value": 17, "unit": "%"}]}
{"smiles": "Cc1cccc(O)c1NC(=O)c1ccccc1Sc1ccc2c(/C=C/c3ccccn3)n[nH]c2c1", "values": [{"measurement": "% inhibition", "value": 11, "unit": "%"}]}
{"smiles": "O=C(Nc1ccc2ccccc2n1)c1ccccc1Sc1ccc2c(/C=C/c3ccccn3)n[nH]c2c1", "values": [{"measurement": "% inhibition", "value": 18, "unit": "%"}]}
{"smiles": "CCc1cccc(CC)c1NC(=O)c1ccccc1Sc1ccc2c(/C=C/c3ccccn3)n[nH]c2c1", "values": [{"measurement": "% inhibition", "value": "−17", "unit": "%"}]}
{"smiles": "O=C(NCCCn1ccnc1)c1ccccc1Sc1ccc2c(/C=C/c3ccccn3)n[nH]c2c1", "values": [{"measurement": "% inhibition of the proliferation of HUVEC", "setting": "[1]", "value": 23, "unit": "%"}, {"measurement": "% inhibition of the proliferation of HUVEC", "setting": "[2]", "value": 23, "unit": "%"}]}
{"smiles": "COc1cc(CNC(=O)c2ccccc2Sc2ccc3c(/C=C/c4ccccn4)n[nH]c3c2)cc(OC)c1", "values": [{"measurement": "% inhibition", "value": 37, "unit": "%"}]}
